From ChEMBL document CHEMBL1201862, “PubChem BioAssay data set” (2004)
Counter-ions that a name gives are not always drawn. The source made the active and inactive calls. Cut-off read from the data, not from the text of the source, for most assays here: actives have a measured EC50 and inactives only a lower limit.

Legend:
[1] = biological target: T1, Heat shock factor protein 1 (Mus musculus, UniProt P38532); experiment: HSF1 potentiators in luciferase reporter cells, confirmation, cell-based, NIH3T3, luminescence, dose retest (AID 435004); format: functional;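 note: stress induced by proteasome inhibitor MG132 added 30 min after compound; luciferase reporter driven by HSF1 response element in NIH3T3 cells; actives raise luminescence as potentiators of the MG132 stress response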
T1 sequence (P38532 whole entry): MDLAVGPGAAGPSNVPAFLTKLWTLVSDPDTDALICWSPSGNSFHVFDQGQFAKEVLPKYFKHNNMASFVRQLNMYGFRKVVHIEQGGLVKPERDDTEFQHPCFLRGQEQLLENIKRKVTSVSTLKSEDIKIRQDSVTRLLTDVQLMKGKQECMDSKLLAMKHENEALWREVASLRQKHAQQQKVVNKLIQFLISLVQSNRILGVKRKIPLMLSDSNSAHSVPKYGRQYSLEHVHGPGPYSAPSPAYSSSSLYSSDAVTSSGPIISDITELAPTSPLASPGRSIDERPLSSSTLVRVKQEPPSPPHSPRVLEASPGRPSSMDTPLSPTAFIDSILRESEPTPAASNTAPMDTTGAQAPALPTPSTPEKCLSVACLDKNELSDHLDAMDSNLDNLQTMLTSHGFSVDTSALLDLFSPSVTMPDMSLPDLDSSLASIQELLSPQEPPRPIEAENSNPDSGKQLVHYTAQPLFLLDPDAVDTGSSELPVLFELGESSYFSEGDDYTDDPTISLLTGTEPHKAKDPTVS

[2] = system: H4; experiment: Luminescence Cell-Based Dose Response HTS to Identify Activators of 5'UTR Stem-Loop Driven Prion Protein mRNA Translation in H4 Neuroglioblastoma Cells. [Related pubchem assays: 1829 (Project Summary), 1814 (Primary HTS)]; format: functional; settings: Homo sapiens
[3] = biological target: T1, Heat shock factor protein 1; experiment: inhibition of MG132-induced HSE-luciferase signal, confirmation, cell-based, NIH3T3, luminescence, dose retest (AID 2382); format: functional;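 note: NIH3T3 fibroblasts with HSF1-driven luciferase reporter stressed by proteasome inhibitor MG132; luminescence from HSF1-driven luciferase expression after 8 hours of MG132 stress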
[4] = Luminescence Cell-Based Dose Response HTS to Identify Activators of Luciferase Translation or Activity in H4 […] Cells. [Related pubchem assays: 1829 (Project Summary), 1814 (Primary HTS)]; format: functional
[5] = Luminescence Cell-Based Dose Confirmation HTS to Identify Activators of 5'UTR Stem-Loop Driven Alpha-Synuclein mRNA Translation in H4 Neuroglioblastoma Cells. [Related pubchem assays: 1829 (Project Summary), 1814 (Primary HTS)]; format: functional
[6] = biological target: Luciferin 4-monooxygenase (Photinus pyralis, UniProt P08659); experiment: firefly luciferase enzyme inhibitors, dose response, biochemical, luminescence (AID 1891)
Luciferin 4-monooxygenase, sequence (P08659 whole entry): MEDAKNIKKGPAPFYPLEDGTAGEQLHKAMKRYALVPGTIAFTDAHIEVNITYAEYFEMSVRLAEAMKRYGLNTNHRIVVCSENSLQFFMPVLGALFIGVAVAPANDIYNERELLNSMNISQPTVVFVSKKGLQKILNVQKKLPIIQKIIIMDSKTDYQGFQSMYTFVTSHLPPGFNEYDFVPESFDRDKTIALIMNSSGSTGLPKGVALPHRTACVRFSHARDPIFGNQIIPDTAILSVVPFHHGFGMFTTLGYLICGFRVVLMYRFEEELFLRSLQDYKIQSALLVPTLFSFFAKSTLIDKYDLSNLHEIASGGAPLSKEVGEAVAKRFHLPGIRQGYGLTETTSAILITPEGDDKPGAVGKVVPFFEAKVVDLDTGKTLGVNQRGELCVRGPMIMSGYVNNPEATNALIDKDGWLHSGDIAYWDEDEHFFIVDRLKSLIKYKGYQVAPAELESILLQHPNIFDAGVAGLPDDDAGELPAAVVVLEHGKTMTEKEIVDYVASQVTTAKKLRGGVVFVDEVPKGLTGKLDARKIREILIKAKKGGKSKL

[7] = Luminescence Cell-Based Dose Confirmation HTS to Identify Inhibitors of Platelet Dense Granule Release. [Related pubchem assays: 1663 (Primary HTS), 1678 (Summary of Project)]; format: functional
[8] = system: P388; experiment: cells; format: functional; settings: Mus musculus
[9] = system: P388/ADR; experiment: cells; format: functional; settings: Mus musculus
[10] = system: SN12K1; experiment: cells; format: functional; settings: Homo sapiens
[11] = biological target: T2, Protein skinhead-1 (Caenorhabditis elegans, UniProt P34707); format: functional
T2 sequence (P34707 whole entry): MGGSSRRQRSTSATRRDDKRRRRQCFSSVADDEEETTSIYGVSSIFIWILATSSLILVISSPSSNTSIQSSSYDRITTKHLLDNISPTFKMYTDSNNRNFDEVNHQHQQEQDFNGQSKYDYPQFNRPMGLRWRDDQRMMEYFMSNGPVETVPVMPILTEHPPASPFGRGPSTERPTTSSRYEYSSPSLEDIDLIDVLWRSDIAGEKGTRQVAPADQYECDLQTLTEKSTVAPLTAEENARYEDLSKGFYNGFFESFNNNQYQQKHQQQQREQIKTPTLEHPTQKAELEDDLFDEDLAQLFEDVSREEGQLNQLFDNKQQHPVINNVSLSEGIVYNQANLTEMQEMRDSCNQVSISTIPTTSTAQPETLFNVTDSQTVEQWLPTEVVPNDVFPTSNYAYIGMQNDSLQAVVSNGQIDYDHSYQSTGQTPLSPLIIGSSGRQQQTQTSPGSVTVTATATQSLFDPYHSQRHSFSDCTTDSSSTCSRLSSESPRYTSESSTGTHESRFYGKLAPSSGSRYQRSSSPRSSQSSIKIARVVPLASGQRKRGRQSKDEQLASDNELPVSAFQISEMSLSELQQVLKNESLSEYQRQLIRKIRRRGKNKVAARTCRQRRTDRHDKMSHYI

## CSc1nc(NC(C)(C)C)nc(Oc2ccc(O)nn2)n1
[1]
  EC50: > 260 µM (inactive)

## CC1=Nc2cc(C(=O)NCC3CCCO3)ccc2Sc2ccc(Br)cc21 (stereo unspecified)
[2]
  EC50: 17.8 µM (active)
[3]
  EC50: > 195 µM (not active)
[4]
  EC50: > 120 µM (not active)
[5]
  EC50: > 120 µM (not active)

## O=C(Nc1ccc(N2CCOCC2)cc1)c1nc2ccccc2s1
[6]
  EC50: 16.4 µM (active)
[7]
  EC50: 5.93 µM (active)

## CCCCCCSc1nc(N)nc2nc[nH]c12
[8]
  GI50: > 40.8 µM (inactive)
[9]
  GI50: 12.7 µM (inactive)
[10]
  GI50: 38.7 µM (inactive)

## CN(C)CCOc1cc2c(c3ccccc13)-c1ccccc1C2=O
[8]
  GI50: 0.0435 µM (active)
[9]
  GI50: 0.36 µM (active)
[10]
  GI50: 0.589 µM (active)

## O=C(Cn1ncc(N2CCOCC2)c(Br)c1=O)c1ccc(Cl)cc1
[2]
  EC50: 17 µM (active)
[4]
  EC50: 7.93 µM (active)
[5]
  EC50: > 120 µM (not active)

## CCOc1cccc2c1OC(c1cc(OC)c(OC)c(OC)c1)N1N=C(c3ccc(C)o3)CC21 (stereo unspecified)
[2]
  EC50: 8.82 µM (active)
[4]
  EC50: 28.3 µM (active)
[5]
  EC50: 32 µM (active)

## CN1CCN(CC(=O)N(C)c2nc(-c3ccccc3)cs2)CC1
[4]
  EC50: 1.22 µM (active)
[5]
  EC50: 1.12 µM (active)

## C=C1C[C@@H](O)C[C@@]2(C)C[C@@H]3OC(=O)C(=C)[C@@H]3C[C@H]12
[8]
  GI50: 2.46 µM (inactive)
[9]
  GI50: 2.2 µM (inactive)
[10]
  GI50: 12.3 µM (inactive)

## O=C(CSc1nc2nccnc2c(=O)n1Cc1cccs1)Nc1ccccc1F
[1]
  EC50: > 260 µM (inactive)

## COc1cccc(NC(=O)CSc2nc3c4ccccc4nc-3c(O)n2C)c1
[1]
  EC50: > 260 µM (inactive)

## COc1ccc(NC(=O)c2cc(S(=O)(=O)N3CCc4ccccc43)cn2C)cc1OC
[6]
  EC50: > 112 µM (not active)
[7]
  EC50: > 112 µM (not active)

## NCCCC(N)(C(=O)O)C(F)F (stereo unspecified) [EFLORNITHINE]
[8]
  GI50: 275 µM (inactive)
[9]
  GI50: > 1840 µM (inactive)
[10]
  GI50: 1400 µM (inactive)

## Oc1nc2cc3c(cc2cc1CN(CCc1ccccc1)Cc1nnnn1C1CCCC1)OCCO3
[6]
  EC50: > 112 µM (not active)
[7]
  EC50: > 112 µM (not active)

## CC(C)(C)c1cccc(/C=N/O)c1O
[1]
  EC50: > 260 µM (inactive)

## CCOC(=O)c1cc(-c2ccccc2)nn1Cc1cc(CC)no1
[2]
  EC50: 89.1 µM (active)
[4]
  EC50: 7.3 µM (active)
[5]
  EC50: 12.4 µM (active)

## COc1ccc(N2CCN(CC(=O)c3ccc(O)cc3O)CC2)cc1
[6]
  EC50: > 112 µM (not active)
[7]
  EC50: > 112 µM (not active)

## COC(=O)C1C(O)C(C)C(O)C(C)(O)/C=C\C=C(C)C(=O)Nc2c(C)c(OC(C)=O)c3c(c2O)C(=O)C(C)=C2OCOC(=C23)C(C)=CC(C)(O)C(O)C(C)C1OC(C)=O (stereo unspecified)
[8]
  GI50: 30.3 µM (inactive)
[9]
  GI50: 41.5 µM (inactive)
[10]
  GI50: 37 µM (inactive)

## c1ccc(C(c2ccccc2)N2CCN(Cc3nnnn3C3CCCC3)CC2)cc1
[6]
  EC50: > 112 µM (not active)
[7]
  EC50: > 112 µM (not active)

## O=[N+]([O-])c1ccc(N2CCCC2)c2ccncc12
[3]
  EC50: 31.2 µM (active)
[11]
  IC50: > 100 µM (inactive)

## O=C1CN2Cc3c(ccc(Cl)c3Cl)N=C2N1 [ANAGRELIDE HYDROCHLORIDE]
[6]
  EC50: > 112 µM (not active)
[7]
  EC50: 0.722 µM (active)

## Cc1cc(O)c2c(c1O)C(=O)C13C(=C(O)C4C(O)C1C1C(O)C3C(O)=C3C(=O)c5c(O)cc(C)c(O)c5C(=O)C341)C2=O (stereo unspecified)
[8]
  GI50: < 0.01 µM (active)
[9]
  GI50: 0.0461 µM (active)
[10]
  GI50: 0.0506 µM (active)
